Results on 14 compounds are retold here after patent publication US20160272617A1, “SUBSTITUTED PHENYLALANINE DERIVATIVES” (BAYER PHARMA AKTIENGESELLSCHAFT, priority 2013, published 2016).

Test [1] deals with human and animal plasma. The test can be described thus: Determination of anticoagulatory activity: activated partial thromboplastin time (aPTT) in plasma. The note with it: concentration of test substance which brings about a 1.5-fold extension of the aPTT; plasma species not given. On the procedure:
The anticoagulatory activity of the test substances is determined in vitro in human and animal plasma (for example mouse, rat, rabbit, pig and dog plasma). To this end, blood is drawn off in a mixing ratio of sodium citrate/blood of 1:9 using a 0.11 molar sodium citrate solution as receiver. Immediately after the blood has been drawn off, it is mixed thoroughly and centrifuged at about 4000 g for 15 minutes. The supernatant is pipetted off.
The activated partial thromboolastin time (aPTT) is determined in the presence of varying concentrations of test substance or the corresponding solvent using a commercial test kit (C. K. Prest from Diagnostica Stago). The test compounds are incubated with the plasma and the PTT reagent (cephalin, kaolin) at 37° C. for 3 minutes. Coagulation is then started by addition of a 25 mM aqueous calcium chloride solution, and the time when coagulation occurs is determined. The concentration of test substance which brings about a 1.5-fold extension of the aPTT is determined.

In test [2] the target is T1, human factor XIa (Homo sapiens, UniProt P03951).
T1 construct: purchased Kordia
T1 sequence (P03951 388-625 limits assumed): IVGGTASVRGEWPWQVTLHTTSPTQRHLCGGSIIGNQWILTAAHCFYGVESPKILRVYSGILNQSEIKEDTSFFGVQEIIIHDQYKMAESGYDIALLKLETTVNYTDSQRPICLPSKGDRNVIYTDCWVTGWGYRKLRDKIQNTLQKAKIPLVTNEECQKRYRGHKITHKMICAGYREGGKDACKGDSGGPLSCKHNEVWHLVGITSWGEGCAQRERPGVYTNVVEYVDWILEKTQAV
T1 sequence (P03951 19-387 partner limits assumed): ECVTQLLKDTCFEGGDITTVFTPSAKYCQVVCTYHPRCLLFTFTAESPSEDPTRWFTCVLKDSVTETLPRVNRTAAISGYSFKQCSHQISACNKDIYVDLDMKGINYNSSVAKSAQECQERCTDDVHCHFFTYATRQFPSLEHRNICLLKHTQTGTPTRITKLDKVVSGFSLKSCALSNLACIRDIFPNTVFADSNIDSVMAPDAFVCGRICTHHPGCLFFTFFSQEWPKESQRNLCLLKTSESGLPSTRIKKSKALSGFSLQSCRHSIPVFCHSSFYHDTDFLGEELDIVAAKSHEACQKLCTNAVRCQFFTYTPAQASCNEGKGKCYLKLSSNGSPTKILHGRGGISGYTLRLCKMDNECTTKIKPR
Kind of test: Measurement of FXIa inhibition (fluorogenic peptide substrate Boc-Glu(OBzl)-Ala-Arg-AMC). The note with it: factor XIa from Kordia, 15 min preincubation, 30 min at 22° C., fluorescence. The class given is biochemical. On the procedure:
The factor XIa inhibition of the inventive substances is determined using a biochemical test system which utilizes the reaction of a peptidic factor XIa substrate to determine the enzymatic activity of human factor XIa. Here, factor XIa cleaves from the peptic factor XIa substrate the C-terminal aminomethylcoumarin (AMC), the fluorescence of which is measured. The determinations are carried out in microtitre plates.
Test substances are dissolved in dimethyl sulphoxide and serially diluted in dimethyl sulphoxide (3000 μM to 0.0078 μM; resulting final concentrations in the test: 50 μM to 0.00013 μM). In each case 1 μl of the diluted substance solutions is placed into the wells of white microtitre plates from Greiner (384 wells). Subsequently, the following are added successively: 20 μl of assay buffer (50 mmol/l Tris buffer pH 7.4; 100 mmol/l sodium chloride; 5 mmol/l calcium chloride; 0.1% bovine serum albumin) and 20 μl of factor XIa from Kordia (0.45 nM in assay buffer). After 15 min of incubation, the enzyme reaction is started by addition of 20 μl of the factor XIa substrate Boc-Glu(OBzl)-Ala-Arg-AMC dissolved in assay buffer (10 μM in assay buffer) from Bachem, the mixture is incubated at room temperature (22° C.) for 30 min and fluorescence is then measured (excitation: 360 nm, emission: 460 nm). The measured emissions of the test mixtures with test substance are compared to those of control mixtures without test substance (only dimethyl sulphoxide instead of test substance in dimethyl sulphoxide), and the IC50 values are calculated from the concentration/activity relationships.

Structures can show the parent of a compound that is named as a salt.

Turning to `NC[C@H]1CC[C@H](C(=O)N[C@@H](Cc2ccc(-c3ccc(C(=O)N[C@@H]4CCNC4)cc3Cl)cc2)C(=O)Nc2ccc(-c3nn[nH]n3)cc2)CC1` [Example 12, 4′-[(2S)-2-({[trans-4-(Aminomethyl)cyclohexyl]carbonyl}amino)-3-oxo-3-{[4-(2H-tetrazol-5-yl)phenyl]amino}propyl]-2-chloro-N-[(3R)-pyrrolidin-3-yl]biphenyl-4-carboxamide hydrochloride], in test [1], the “aPTT” value was determined as 0.1 µmol/L. Besides, the IC50 in test [2] stood at 2.7 nM.
For `NC[C@H]1CC[C@H](C(=O)N[C@@H](Cc2ccc(-c3ccc(C(=O)N[C@H]4CCNC4)cc3Cl)cc2)C(=O)Nc2ccc(-c3nn[nH]n3)cc2)CC1` [Example 13, 4′-[(2S)-2-({[trans-4-(Aminomethyl)cyclohexyl]carbonyl}amino)-3-oxo-3-{[4-(2H-tetrazol-5-yl)phenyl]amino}propyl]-2-chloro-N-[(3S)-pyrrolidin-3-yl]biphenyl-4-carboxamide hydrochloride], in that order: 0.44 µmol/L and 4.2 nM.
For `Cc1cc(C(N)=O)ccc1-c1ccc(C[C@H](NC(=O)[C@H]2CC[C@H](CN)CC2)C(=O)Nc2ccc(-c3nn[nH]n3)cc2)cc1` [Example 14, 4′-[(2S)-2-({[trans-4-(Aminomethyl)cyclohexyl]carbonyl}amino)-3-oxo-3-{[4-(2H-tetrazol-5-yl)phenyl]amino}propyl]-2-methylbiphenyl-4-carboxamide hydrochloride], in that order: 0.49 µmol/L and 1.4 nM.
For `Cc1cc(C(=O)NCCN)ccc1-c1ccc(C[C@H](NC(=O)[C@H]2CC[C@H](CN)CC2)C(=O)Nc2ccc(-c3nn[nH]n3)cc2)cc1` [Example 15, N-(2-Aminoethyl)-4′-[(2S)-2-({[trans-4-(aminomethyl)cyclohexyl]carbonyl}amino)-3-oxo-3-{[4-(2H-tetrazol-5-yl)phenyl]amino}propyl]-2-methylbiphenyl-4-carboxamide hydrochloride], in that order: 0.09 µmol/L and 2.9 nM.
Turning to `Cc1cc(C(=O)N2CCNCC2)ccc1-c1ccc(C[C@H](NC(=O)[C@H]2CC[C@H](CN)CC2)C(=O)Nc2ccc(-c3nn[nH]n3)cc2)cc1` [Example 16, trans-4-(Aminomethyl)-N-[(2S)-3-[2′-methyl-4′-(piperazin-1-ylcarbonyl)biphenyl-4-yl]-1-oxo-1-{[4-(2H-tetrazol-5-yl)phenyl]amino}propan-2-yl]cyclohexanecarboxamide hydrochloride], in test [1], the “aPTT” value was found to be 0.23 µmol/L. In test [2], this compound had an IC50 of 3.9 nM.
For `Cc1cc(C(=O)NCCO)ccc1-c1ccc(C[C@H](NC(=O)[C@H]2CC[C@H](CN)CC2)C(=O)Nc2ccc3cn[nH]c3c2)cc1` [Example 17, 4′-[(2S)-2-({[trans-4-(Aminomethyl)cyclohexyl]carbonyl}amino)-3-(1H-indazol-6-ylamino)-3-oxopropyl]-N-(2-hydroxyethyl)-2-methylbiphenyl-4-carboxamide hydrochloride], in that order: 0.35 µmol/L and 6.1 nM.
For `Cc1cc(C(=O)NCCO)ccc1-c1ccc(C[C@H](NC(=O)[C@H]2CC[C@H](CN)CC2)C(=O)Nc2ccc(-c3nn[nH]n3)cc2)cc1` [Example 18, 4′-[(2S)-2-({[trans-4-(Aminomethyl)cyclohexyl]carbonyl}amino)-3-oxo-3-{[4-(2H-tetrazol-5-yl)phenyl]amino}propyl]-N-(2-hydroxyethyl)-2-methylbiphenyl-4-carboxamide hydrochloride], in that order: 0.16 µmol/L and 3.7 nM.
For `Cc1cc(C(=O)NC2CCNCC2)ccc1-c1ccc(C[C@H](NC(=O)[C@H]2CC[C@H](CN)CC2)C(=O)Nc2ccc3c(=O)[nH][nH]c3c2)cc1` [Example 22, 4′-{(2S)-2-({[trans-4-(Aminomethyl)cyclohexyl]carbonyl}amino)-3-oxo-3-[(3-oxo-2,3-dihydro-1H-indazol-6-yl)amino]propyl}-2-methyl-N-(piperidin-4-yl)biphenyl-4-carboxamide hydrochloride], in that order: 0.06 µmol/L and 15 nM.
Consider `CCN(CC)CCNC(=O)c1ccc(-c2ccc(C[C@H](NC(=O)[C@H]3CC[C@H](CN)CC3)C(=O)Nc3ccc4c(=O)[nH][nH]c4c3)cc2)c(C)c1` [Example 23, 4′-{(2S)-2-({[trans-4-(Aminomethyl)cyclohexyl]carbonyl}amino)-3-oxo-3-[(3-oxo-2,3-dihydro-1H-indazol-6-yl)amino]propyl}-N-[2-(diethylamino)ethyl]-2-methylbiphenyl-4-carboxamide hydrochloride], for which the “aPTT” value in test [1] amounted to 0.28 µmol/L. The IC50 in test [2] worked out at 27.5 nM.
For `CCN(CC)CCCNC(=O)c1ccc(-c2ccc(C[C@H](NC(=O)[C@H]3CC[C@H](CN)CC3)C(=O)Nc3ccc4c(=O)[nH][nH]c4c3)cc2)c(C)c1` [Example 24, 4′-{(2S)-2-({[trans-4-(Aminomethyl)cyclohexyl]carbonyl}amino)-3-oxo-3-[(3-oxo-2,3-dihydro-1H-indazol-6-yl)amino]propyl}-N-[3-(diethylamino)propyl]-2-methylbiphenyl-4-carboxamide hydrochloride], in that order: 0.31 µmol/L and 18 nM.
Consider `Cc1cc(C(=O)N[C@H]2CCNC2)ccc1-c1ccc(C[C@H](NC(=O)[C@H]2CC[C@H](CN)CC2)C(=O)Nc2ccc3c(=O)[nH][nH]c3c2)cc1` [Example 25, 4′-{(2S)-2-({[trans-4-(Aminomethyl)cyclohexyl]carbonyl}amino)-3-oxo-3-[(3-oxo-2,3-dihydro-1H-indazol-6-yl)amino]propyl}-2-methyl-N-[(3S)-pyrrolidin-3-yl]biphenyl-4-carboxamide hydrochloride], for which, in test [1], the “aPTT” value worked out at 0.14 µmol/L. For the same compound, the IC50 in test [2] came to 14 nM.
For `COCCOCCOCCOCCNC(=O)c1ccc(-c2ccc(C[C@H](NC(=O)[C@H]3CC[C@H](CN)CC3)C(=O)Nc3ccc(-c4nn[nH]n4)cc3)cc2)c(Cl)c1` [Example 26, 4′-[(2S)-2-({[trans-4-(Aminomethyl)cyclohexyl]carbonyl}amino)-3-oxo-3-{[4-(2H-tetrazol-5-yl)phenyl]amino}propyl]-2-chloro-N-(2,5,8, 11-tetraoxatridecan-13-yl)biphenyl-4-carboxamide hydrochloride], in that order: 0.19 µmol/L and 2.4 nM.
For `COCCOCCOCCOCCNC(=O)c1ccc(-c2ccc(C[C@H](NC(=O)[C@H]3CC[C@H](CN)CC3)C(=O)Nc3ccc(-c4nn[nH]n4)cc3)cc2)c(C)c1` [Example 27, 4′-[(2S)-2-({[trans-4-(Aminomethyl)cyclohexyl]carbonyl}amino)-3-oxo-3-{[4-(2H-tetrazol-5-yl)phenyl]amino}propyl]-2-methyl-N-(2,5,8,11-tetraoxatridecan-13-yl)biphenyl-4-carboxamide hydrochloride], in that order: 0.24 µmol/L and 2.8 nM.
For `COCCOCCOCCOCCNC(=O)c1ccc(-c2ccc(C[C@H](NC(=O)[C@H]3CC[C@H](CN)CC3)C(=O)Nc3ccc4c(=O)[nH][nH]c4c3)cc2)c(C)c1` [Example 28, 4′-{(2S)-2-({[trans-4-(Aminomethyl)cyclohexyl]carbonyl}amino)-3-oxo-3-[(3-oxo-2,3-dihydro-1H-indazol-6-yl)amino]propyl}-2-methyl-N-(2,5,8,11-tetraoxatridecan-13-yl)biphenyl-4-carboxamide hydrochloride], in that order: 0.33 µmol/L and 14 nM.
